Patent publication US20140018316A1, “OPHTHALMIC PHARMACEUTICAL COMPOSITION” (Hayashibara Co., Ltd., priority 2005, published 2014)

System: circular corneal fragment extracted from a pig eye ball
Assay: Corneal walleye/cloudiness and edema of pig corneal fragments soaked in test or control solutions
Parameters: degree of corneal walleye/cloudiness (relative value): scale not given here; key to corneal edema: ◯: Corneal edema was observed.; —: No corneal edema was observed
Details: for corneal edema / degree of corneal walleye/cloudiness (relative value): 100 mM in physiological saline
Description: Experiment to examine the influence of cyclic tetrasaccharide on corneal walleye/cloudiness was conducted as follows: A physiological saline containing 100 mM cyclic tetrasaccharide was previously prepared for use as a test solution by dissolving a cyclic tetrasaccharide crystal, pentahydrate, which had been prepared by the later described method in Example for Reference 2. As a positive control solution, it was prepared a physiological saline containing 100 mM α,α-trehalose, a reagent grade specimen, commercialized by Hayashibara Biochemical Laboratories, Inc., Okayama, Japan; and as a negative control solution, physiological saline was used. Two milliliters of any one of the above three kinds of aqueous solutions were added to respective two wells in a commercialized 24-well culture plate. To each well in each culture plate a circular corneal fragment, which had been extracted from a pig eye ball obtained from a slaughterhouse by using a trephine for corneal transplantation, was placed and macroscopically and microscopically observed for changing in both the degree of corneal walleye/cloudiness and the change of corneal shape such as corneal edema. The macroscopic and microscopic observations were done just after the corneas were placed in the wells at (0) and at 1, 2, 6, 24, 48 and 72 hours after their placing. The methods of macroscopic and microscopic observations and the analysis of the time course change of corneal walleye/cloudiness were conducted by the same ones as used in Experiment 1. Tables 3 and 4 show the transition of corneal walleye/cloudiness and that of the corneal edema, respectively.

OCC1OC2OCC3O[C@H](O[C@H]4C(O)C(CO)OC(OCC5O[C@H](O[C@@H](C1O)C2O)C(O)C(O)[C@@H]5O)C4O)C(O)C(O)[C@@H]3O (stereo partly drawn) [Test solution, cyclo{→6)-α-D-glucopyranosyl-(1→3)-α-D-glucopyranosyl-(1→6)-α-D-glucopyranosyl-(1→3)-α-D-glucopyranosyl-(1→}]
corneal edema (1 hour): — | degree of corneal walleye/cloudiness (relative value) (1 hour): 11 | corneal edema (2 hours): — | degree of corneal walleye/cloudiness (relative value) (2 hours): 11 | corneal edema (6 hours): — | degree of corneal walleye/cloudiness (relative value) (6 hours): 13 | corneal edema (24 hours): — | degree of corneal walleye/cloudiness (relative value) (24 hours): 16 | corneal edema (48 hours): — | degree of corneal walleye/cloudiness (relative value) (48 hours): 16 | corneal edema (72 hours): — | degree of corneal walleye/cloudiness (relative value) (72 hours): 19 | corneal edema (time 0): — | degree of corneal walleye/cloudiness (relative value) (time 0): 10 | corneal edema (in words) (100 mM, up to 72 hours): No occurrence of corneal edema was observed
